US6369061B1, “Therapeutic agent for spinal canal stenosis” (Mitsubishi Pharma Corporation, priority 1998, dated 2002)

Tested on: rabbit acute spinal canal stenosis model
Assay: Rabbit cauda equina nerve graded constriction model as rabbit acute spinal canal stenosis model (nerve conduction velocity, tissue blood flow, tissue oxygen tension)
Type: in vivo
Settings: for Cauda equina nerve conduction velocity / Cauda equina nerve tissue blood flow / Cauda equina nerve tissue oxygen tension: measured 8 days after model preparation, mean ± standard error
Description: Effects of compound A on cauda equina nerve conduction velocity, cauda equina nerve tissue blood flow and variation in cauda equina nerve tissue oxygen tension in a rabbit acute spinal canal stenosis model
(1) Preparation of the Rabbit Cauda Equina Nerve Graded Constriction Model as Rabbit Acute Spinal Canal Stenosis Model Male Japanese white rabbits were fixed at the abdominal position under anesthesia by an intravenous injection of pentobarbital sodium (25 mg/kg, DAINIPPON PHARMACEUTICAL CO., LTD.) and the vertebral arch of the fifth lumbar vertebra was removed under a microscope (OLYMPUS OME) observation to expose cauda equina nerve. After the cauda equina nerve fascicle was gently ligated at one site together with a 26 G injection needle using a catgut suture (chromic catgut (thread 4-0, needle 12.9 mm), Johnson and Johnson), the injection needle was pulled out, and the dissected portion was sutured. In the sham operation group, the cauda equina nerve was only exposed and the dissected portion was sutured.
The rabbits were grouped in turn into a sham operation group (6 rabbits), a solvent group (6 rabbits), a compound A (3 mg/kg) administration group (6 rabbits), a compound A (10 mg/kg) administration group (6 rabbits), a compound A (30 mg/kg) administration group (6 rabbits), and a cilostazol (300 mg/kg, the same anti-platelet drug as compound A as a control drug, Otsuka Pharmaceutical Co., Ltd.) administration group (6 rabbits).
The drug was prepared into the volume of 5 mL/kg by suspending in 0.5% methylcellulose solution, and orally administered repeatedly once a day for 7 consecutive days from the next day of the model preparation. The 0.5% methylcellulose solution (5 mL/kg) was administered in the same manner to the solvent group. Nothing was administered to the sham operation group.
The next day of the final administration (8 days after model animals preparation), the model animals were anesthetized by an intravenous injection of pentobarbital sodium (25 mg/kg) and, after insertion of a tracheal catheter, fixed at the abdominal position. The rabbits were connected to a ventilator (45 times/min) and given pancuronium bromide (0.08 mg/kg, Sankyo Co., Ltd.) by an intravenous administration. The cauda equina nerve tissue blood flow in the downstream portion of the ligation site was measured transdurally using a laser blood flowmeter [ADVANCED LASER FLOWMETER, ALF2100, Advance] under the microscope observation. The cauda equina nerve tissue oxygen tension was measured at the same site using a pO2 monitor (model POG-201, Unique Medical Co. Ltd.). The cauda equina nerve conduction velocity was obtained by deriving the action potential induced by a spinal electric stimulus in the upper point and lower point of the ligation site and dividing the distance between the both points by the difference in the rise latent time (SIGNAL PROCESSOR, San-ei).
The obtained results are shown in mean±standard error. Using SAS (Statistical Analysis System), the following statistical analysis was performed. The sham operation group and the solvent group were compared by the Student's t-test. The effect of the drug was verified by the Dunnett's method to the solvent group as a control. In both tests, p<0.05 was taken as statistically significant.

[1] = 300 mg/kg p.o. once a day for 7 days
[2] = 300 mg/kg p.o., vs. solvent group
[3] = 3 mg/kg p.o. once a day for 7 days
[4] = 10 mg/kg p.o. once a day for 7 days
[5] = 30 mg/kg p.o. once a day for 7 days

SMILES: O=C1CCc2cc(OCCCCc3nnnn3C3CCCCC3)ccc2N1 [Cilostazol, cilostazol, reference compound]
- Cauda equina nerve conduction velocity [1]: 14.585 ± 2.606 cm/ms
- Cauda equina nerve tissue blood flow [1]: 21.88 ± 4.25 ml/min. 100 g tissue
- Cauda equina nerve tissue oxygen tension [1]: 33.7 ± 5.3 mmHg
- Effect on cauda equina nerve conduction velocity (in words) [2]: did not improve the velocity
- Effect on cauda equina nerve tissue blood flow (in words) [2]: not improved
- Effect on cauda equina nerve tissue oxygen tension (in words) [2]: did not show an increasing effect

SMILES: Cl.O=c1[nH]nc(OCCCc2ccc(Cl)cc2)c(NCc2cccnc2)c1Br [Compound A, 4-bromo-6-[3-(4-chlorophenyl)propoxy]-5-(3-pyridylmethylamino)-3(2H)-pyridazinone hydrochloride]
- Cauda equina nerve conduction velocity [3]: 20.327 ± 4.871 cm/ms
- Cauda equina nerve tissue blood flow [3]: 23.33 ± 4.59 ml/min. 100 g tissue
- Cauda equina nerve tissue oxygen tension [3]: 35.5 ± 5.6 mmHg
- Cauda equina nerve conduction velocity [4]: 22.838 ± 3.571 cm/ms
- Cauda equina nerve tissue blood flow [4]: 24.42 ± 2.70 ml/min. 100 g tissue
- Cauda equina nerve tissue oxygen tension [4]: 42.8 ± 5.8 mmHg
- Cauda equina nerve conduction velocity [5]: 27.098 ± 3.627 cm/ms
- Cauda equina nerve tissue blood flow [5]: 33.67 ± 4.21 ml/min. 100 g tissue
- Cauda equina nerve tissue oxygen tension [5]: 49.8 ± 3.4 mmHg
- Effect on cauda equina nerve tissue blood flow (in words) (30 mg/kg p.o., vs. solvent group): significantly increased
- Effect on decrease in cauda equina nerve conduction velocity (in words) (3, 10, 30 mg/kg p.o., vs. solvent group): significantly lessened the decrease in a dose-dependent manner
- Effect on cauda equina nerve tissue oxygen tension (in words) (3, 10, 30 mg/kg p.o., vs. solvent group, significant at 30 mg/kg): showed a dose-dependent increase
